Measured values from the NIST ThermoML archive (doi:10.1021/je800463k).

Assay: mn = molality of the nth substance listed, in mol/kg
Settings: 101 kPa, Liquid; for electrical conductivity: Frequency=0.001 MHz, Alternating current cell with electrodes; for speed of sound: Frequency=2 MHz; for mass density: Pycnometric method

CC(=O)[O-].CC(=O)[O-].[Mg+2] [magnesium acetate] + CO
Settings	electrical conductivity [S/m]	mass density [kg/m3]	speed of sound [m/s]	viscosity [mPa·s]
273.15 K, m1 = 0.0059	0.0325	–	1185.9	–
273.15 K, m1 = 0.0093	0.055	–	1186.1	–
273.15 K, m1 = 0.014	–	–	–	0.821
273.15 K, m1 = 0.018	0.0621	–	1186.2	0.8229
273.15 K, m1 = 0.0339	0.0796	–	–	0.8417
273.15 K, m1 = 0.053	0.0922	–	1190.2	–
273.15 K, m1 = 0.0646	0.0965	–	–	0.8642
273.15 K, m1 = 0.0855	0.106	–	1190.1	–
273.15 K, m1 = 0.1012	–	–	–	0.9108
273.15 K, m1 = 0.1024	0.1148	–	1194.5	–
273.15 K, m1 = 0.13	–	–	–	0.9308
273.15 K, m1 = 0.1402	0.1289	–	1194.6	0.9493
273.15 K, m1 = 0.1455	0.1307	–	1192.6	–
273.15 K, m1 = 0.17	–	–	–	0.9637
273.15 K, m1 = 0.1837	0.1414	–	1195.3	–
273.15 K, m1 = 0.2003	–	–	–	0.9889
273.15 K, m1 = 0.2192	–	–	1196.7	–
273.15 K, m1 = 0.2422	0.1507	–	1196.9	1.042
273.15 K, m1 = 0.2453	–	–	–	1.036
273.15 K, m1 = 0.2889	0.1565	–	1197.1	1.091
273.15 K, m1 = 0.3042	–	–	1199.6	–
278.15 K, m1 = 0.0059	0.0329	–	1169.1	–
278.15 K, m1 = 0.0093	0.0556	–	1169.4	–
278.15 K, m1 = 0.014	–	–	–	0.7547
278.15 K, m1 = 0.018	0.0627	–	1170	0.7565
278.15 K, m1 = 0.0339	0.0807	–	–	0.7732
278.15 K, m1 = 0.053	0.0937	–	1172.6	–
278.15 K, m1 = 0.0646	0.0989	–	–	0.7927
278.15 K, m1 = 0.0855	0.1084	–	1176.6	–
278.15 K, m1 = 0.1012	–	–	–	0.8332
278.15 K, m1 = 0.1024	0.1174	–	1176.8	–
278.15 K, m1 = 0.13	–	–	–	0.8509
278.15 K, m1 = 0.1402	0.1326	–	1177.7	0.867
278.15 K, m1 = 0.1455	0.135	–	1175	–
278.15 K, m1 = 0.17	–	–	–	0.8812
278.15 K, m1 = 0.1837	0.1448	–	1179.3	–
278.15 K, m1 = 0.2003	–	–	–	0.9025
278.15 K, m1 = 0.2192	–	–	1181	–
278.15 K, m1 = 0.2422	0.153	–	1179.9	0.9469
278.15 K, m1 = 0.2453	–	–	–	0.9437
278.15 K, m1 = 0.2889	0.1605	–	1180.9	0.9892
278.15 K, m1 = 0.3042	–	–	1181.7	–
283.15 K, m1 = 0.0059	0.0334	–	1152.8	–
283.15 K, m1 = 0.0093	0.0562	–	1153.2	–
283.15 K, m1 = 0.014	–	–	–	0.6979
283.15 K, m1 = 0.018	0.0634	–	1154.7	0.6998
283.15 K, m1 = 0.0339	0.0818	–	–	0.7143
283.15 K, m1 = 0.053	0.0954	–	1156.3	–
283.15 K, m1 = 0.0646	0.1008	–	–	0.7304
283.15 K, m1 = 0.0855	0.1089	–	1156.5	–
283.15 K, m1 = 0.1012	–	–	–	0.7669
283.15 K, m1 = 0.1024	0.1198	–	1160.3	–
283.15 K, m1 = 0.13	–	–	–	0.7824
283.15 K, m1 = 0.1402	0.1355	–	1160.4	0.7965
283.15 K, m1 = 0.1455	0.1388	–	1158.5	–
283.15 K, m1 = 0.17	–	–	–	0.8105
283.15 K, m1 = 0.1837	0.1465	–	1161.7	–
283.15 K, m1 = 0.2003	–	–	–	0.8289
283.15 K, m1 = 0.2192	–	–	1162.8	–
283.15 K, m1 = 0.2422	0.1656	–	1163.1	0.8664
283.15 K, m1 = 0.2453	–	–	–	0.8643
283.15 K, m1 = 0.2889	0.1642	–	1163.5	0.8961
283.15 K, m1 = 0.3042	–	–	1165.8	–
288.15 K, m1 = 0.0059	0.0341	–	1135.7	–
288.15 K, m1 = 0.0093	0.0566	–	1136.1	–
288.15 K, m1 = 0.014	–	–	–	0.6458
288.15 K, m1 = 0.018	0.0642	–	1137.4	0.6478
288.15 K, m1 = 0.0339	0.0831	–	–	0.6606
288.15 K, m1 = 0.053	0.0969	–	1138.1	–
288.15 K, m1 = 0.0646	0.1033	–	–	0.6743
288.15 K, m1 = 0.0855	0.1114	–	1139.7	–
288.15 K, m1 = 0.1012	–	–	–	0.7063
288.15 K, m1 = 0.1024	0.1227	–	1142.7	–
288.15 K, m1 = 0.13	–	–	–	0.7206
288.15 K, m1 = 0.1402	0.139	–	1144.3	0.7286
288.15 K, m1 = 0.1455	0.1428	–	1141.6	–
288.15 K, m1 = 0.17	–	–	–	0.7465
288.15 K, m1 = 0.1837	0.1496	–	1143.8	–
288.15 K, m1 = 0.2003	–	–	–	0.7639
288.15 K, m1 = 0.2192	–	–	1147.5	–
288.15 K, m1 = 0.2422	0.1673	–	1146.4	0.7865
288.15 K, m1 = 0.2453	–	–	–	0.7929
288.15 K, m1 = 0.2889	0.1692	–	1147	0.8205
288.15 K, m1 = 0.3042	–	–	1149.4	–
293.15 K, m1 = 0.0059	0.0349	–	1119	–
293.15 K, m1 = 0.0093	0.0575	–	1118.9	–
293.15 K, m1 = 0.014	–	–	–	0.6
293.15 K, m1 = 0.018	0.0649	–	1120.9	0.6022
293.15 K, m1 = 0.0339	0.0843	–	–	0.6132
293.15 K, m1 = 0.053	0.0985	–	1121.1	–
293.15 K, m1 = 0.0646	0.1055	–	–	0.6249
293.15 K, m1 = 0.0855	0.1149	–	1122.8	–
293.15 K, m1 = 0.1012	–	–	–	0.6535
293.15 K, m1 = 0.1024	0.1258	–	1126	–
293.15 K, m1 = 0.13	–	–	–	0.666
293.15 K, m1 = 0.1402	0.1426	–	1128.4	0.6731
293.15 K, m1 = 0.1455	0.1463	–	1124.4	–
293.15 K, m1 = 0.17	–	–	–	0.6902
293.15 K, m1 = 0.1837	0.1536	–	1127.3	–
293.15 K, m1 = 0.2003	–	–	–	0.7039
293.15 K, m1 = 0.2192	–	–	1130.4	–
293.15 K, m1 = 0.2422	0.1693	–	1129.6	0.7255
293.15 K, m1 = 0.2453	–	–	–	0.7305
293.15 K, m1 = 0.2889	0.1735	–	1131.7	0.7548
293.15 K, m1 = 0.3042	–	–	1132.6	–
296.65 K, m1 = 0.1112	–	798.51	–	–
297.55 K, m1 = 0.2192	–	803.53	–	–
298.15 K, m1 = 0.0059	0.0355	–	1102.5	–
298.15 K, m1 = 0.0093	0.058	–	1102	–
298.15 K, m1 = 0.014	–	–	–	0.5583
298.15 K, m1 = 0.018	0.0656	–	1103.5	0.5605
298.15 K, m1 = 0.0339	0.0856	–	–	0.5703
298.15 K, m1 = 0.053	0.1	–	1104.6	–
298.15 K, m1 = 0.0646	0.108	–	–	0.5802
298.15 K, m1 = 0.0855	0.1183	–	1106.7	–
298.15 K, m1 = 0.1012	–	–	–	0.6059
298.15 K, m1 = 0.1024	0.1284	–	1109.8	–
298.15 K, m1 = 0.13	–	–	–	0.617
298.15 K, m1 = 0.1402	0.1458	–	1111.6	0.6234
298.15 K, m1 = 0.1455	0.1485	–	1108.4	–
298.15 K, m1 = 0.17	–	–	–	0.6396
298.15 K, m1 = 0.1837	0.1578	–	1110.9	–
298.15 K, m1 = 0.2003	–	–	–	0.6529
298.15 K, m1 = 0.2192	–	–	1113.4	–
298.15 K, m1 = 0.2422	0.1717	–	1112.7	0.6701
298.15 K, m1 = 0.2453	–	–	–	0.6746
298.15 K, m1 = 0.2889	0.1776	–	1115.2	0.6956
298.15 K, m1 = 0.3042	–	–	1116.1	–
298.5 K, m1 = 0.0646	–	793.38	–	–
299 K, m1 = 0.0339	–	790.63	–	–
299.1 K, m1 = 0.014	–	788.94	–	–
299.25 K, m1 = 0.1798	–	800.6	–	–
299.3 K, m1 = 0.2192	–	801.81	–	–
299.35 K, m1 = 0.1112	–	795.95	–	–
